Measured values published in patent US9284324B2, “Phenylpyrrole derivative” (TAISHO PHARMACEUTICAL CO., LTD, priority 2011, dated 2016).
pIC50: −log10 of the molar value. Values joined by “and” are separate entries in the source; they are usually repeats but may differ in a detail not shown here. Equal entries are not always repeated.

Columns and labels:
H3 receptor = target: T1, H3 receptor (Rattus norvegicus, UniProt Q9QYN8); test: Rat H3 receptor binding test (N-α-methyl[3H]histamine); settings: rat frontal cortex membrane fraction, N-α-methyl[3H]histamine 0.75 nM
T1 construct: The frontal cortex dissected from rats was homogenized; from tissue; host or cells: rat frontal cortex membrane fraction
Description: (Test 1: Rat H3 Receptor Binding Test)
The frontal cortex dissected from rats was homogenized with a Teflon homogenizer in a 50 mM Tris-HCl buffer solution (pH 7.4) containing a protease inhibitor (Complete EDTA-free; Roche Diagnostics) and 5 mM EDTA. The homogenate was centrifuged at 48,000×g for 15 minutes. The supernatant was removed and the pellet was suspended in a 50 mM Tris-HCl buffer solution (pH 7.4) containing 5 mM EDTA and centrifuged at 48,000×g for 15 minutes. The supernatant was removed and the pellet was suspended in a 50 mM Tris-HCl buffer solution (pH 7.4) containing 5 mM EDTA to give a membrane fraction. The membrane fraction (the protein content in the final reaction mixture: 75 μg), N-α-methyl[^3H]histamine (PerkinElmer; final concentration: 0.75 nM) and a test drug were mixed and subjected to reaction at room temperature for an hour. After the end of the reaction, the reaction mixture was suction filtered through a 96-well GF/C filter plate pretreated with 0.3% polyethyleneimine; the filters were then washed five times with a 50 mM Tris-HCl buffer solution (pH 7.4) containing 5 mM EDTA. After the washing, the filters were dried and a scintillator was added to measure the residual radioactivity on the filter with TopCount (PerkinElmer).
The residual radioactivity in the presence of 10 μM thioperamide was taken as indicative of nonspecific binding and the difference from the residual radioactivity in the absence of thioperamide was taken as indicative of specific binding. Each of the test drugs was dissolved and diluted in DMSO at varying concentrations to plot a dose-response curve from the corresponding residual radio activities; the concentration of test drug that inhibited the specific binding by 50% (IC50) was determined from this curve.

[1] = target: T2, P-glycoprotein (Human MDR1) (Homo sapiens, UniProt P08183); test: P-glycoprotein substrate recognition test; type: in vitro ADME; settings: ratio of apical→basal and basal→apical membrane permeation coefficients; for efflux ratio at 10 μM: human, LLC-PK1, LLC-GA5-COL300 cells on transwell
T2 construct: expressed in transfected cells; host or cells: LLC-GA5-COL300 (derived from pig kidney LLC-PK1)
Description: (Test 4: P-Glycoprotein Substrate Recognition Test)
LLC-GA5-COL300 cells (Human MDR1 expressing system derived from pig kidney derived, cultured renal epithelial cell line LLC-PK1) were cultured on a transwell. Immediately before the test, the culture medium was replaced by Hank's balanced salt solution (HBSS) and the test was then conducted. A solution of an assay compound adjusted to a final concentration of 10 μM was added to the donor side of LLC-GA5-COL300 cells and after the passage of a predetermined period of time, a specified quantity of […] was sampled from the acceptor side. The concentration of the assay compound in the sample was measured by LC-MS/MS. From the amounts of the compound that accumulated and passed into the acceptor side, membrane permeation coefficients (×10^−6 cm/sec) were calculated for apical→basal and basal→apical directions and their relative ratio (efflux ratio) was determined to evaluate the P-glycoprotein substrate recognition.

[2] = Rat in vivo pharmacokinetic study; set-up: species or system SD rats; settings: for concentration at 1 h / Kp at 1 h: SD, rat, in vivo, po, 3 mg/kg
Description: (Test 3: Rat In Vivo Pharmacokinetic Study)
SD rats were given a single oral administration of Compound No. 3, 4 or 7 at a dose of 3 mg/kg and an hour after the administration, the compound's distribution among the plasma, brain, and cerebrospinal fluid was checked. Quantification was effected by a high-performance chromatography/tandem mass spectrometer API 4000 (LC-MS/MS; AB Sciex). As it turned out, Compound Nos. 3, 4 and 7 had good brain/plasma movement ratios of 4.5, 2.9 and 2.2, respectively, with the corresponding intracerebral concentrations of 78.2 ng/g, 7.06 ng/g and 408 ng/g.

histamine H3 receptor = target: T3, histamine H3 receptor (Rattus norvegicus, UniProt Q9QYN8); test: [35S]GTP-γ-S binding test; type: biochemical; settings: rat frontal cortex membrane fraction, R(−)-α-methyl histamine 300 nM, [35S]GTP-γ-S 0.3 nM
T3 construct: The frontal cortex dissected from rats was homogenized; from tissue; host or cells: rat frontal cortex membrane fraction
Description: (Test 2: [^35S]GTP-γ-S Binding Test)
The frontal cortex dissected from rats was homogenized with a Teflon homogenizer in a 30 mM Tris-HCl buffer solution (pH 7.4) containing 2.5 mM calcium chloride dihydrate. The homogenate was centrifuged at 48,000×g for 15 minutes. The supernatant was removed and the pellet was suspended in a 30 mM Tris-HCl buffer solution (pH 7.4) containing 2.5 mM calcium chloride dihydrate and centrifuged at 48,000×g for 15 minutes. The supernatant was removed and the pellet was suspended in a 30 mM Tris-HCl buffer solution (pH 7.4) containing 2.5 mM calcium chloride dihydrate and after incubation at 37° C. for 30 minutes, the suspension was centrifuged at 48,000×g for 15 minutes. The resulting supernatant was removed and the pellet was suspended in a 20 mM HEPES buffer solution (pH 7.4) containing 100 mM sodium chloride and 10 mM magnesium chloride to give a membrane fraction. […] After the washing, the filters were dried and a scintillator was added to measure the residual radioactivity on the filter with TopCount (PerkinElmer).
The residual radioactivity in the absence of R(−)-α-methyl histamine was taken as indicative of nonspecific binding and the difference from the residual radioactivity in the presence of R(−)-α-methyl histamine was taken as indicative of specific binding. […]

[3] = cerebrospinal fluid/plasma movement ratio
[4] = SD rats, single oral 3 mg/kg, an hour after administration

T1 sequence (Q9QYN8 whole entry): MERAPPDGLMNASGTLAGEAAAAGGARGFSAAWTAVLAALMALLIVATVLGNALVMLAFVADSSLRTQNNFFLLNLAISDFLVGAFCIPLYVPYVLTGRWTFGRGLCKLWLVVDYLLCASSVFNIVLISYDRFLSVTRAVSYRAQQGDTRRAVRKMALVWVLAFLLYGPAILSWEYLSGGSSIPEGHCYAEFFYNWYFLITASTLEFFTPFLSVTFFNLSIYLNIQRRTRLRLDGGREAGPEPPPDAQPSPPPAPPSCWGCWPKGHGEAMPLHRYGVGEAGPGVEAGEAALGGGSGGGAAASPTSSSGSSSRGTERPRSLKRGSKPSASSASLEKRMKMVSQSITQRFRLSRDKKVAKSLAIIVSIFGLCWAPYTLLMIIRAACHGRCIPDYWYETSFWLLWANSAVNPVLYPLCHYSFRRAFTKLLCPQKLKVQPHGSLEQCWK
T2 sequence (P08183 whole entry): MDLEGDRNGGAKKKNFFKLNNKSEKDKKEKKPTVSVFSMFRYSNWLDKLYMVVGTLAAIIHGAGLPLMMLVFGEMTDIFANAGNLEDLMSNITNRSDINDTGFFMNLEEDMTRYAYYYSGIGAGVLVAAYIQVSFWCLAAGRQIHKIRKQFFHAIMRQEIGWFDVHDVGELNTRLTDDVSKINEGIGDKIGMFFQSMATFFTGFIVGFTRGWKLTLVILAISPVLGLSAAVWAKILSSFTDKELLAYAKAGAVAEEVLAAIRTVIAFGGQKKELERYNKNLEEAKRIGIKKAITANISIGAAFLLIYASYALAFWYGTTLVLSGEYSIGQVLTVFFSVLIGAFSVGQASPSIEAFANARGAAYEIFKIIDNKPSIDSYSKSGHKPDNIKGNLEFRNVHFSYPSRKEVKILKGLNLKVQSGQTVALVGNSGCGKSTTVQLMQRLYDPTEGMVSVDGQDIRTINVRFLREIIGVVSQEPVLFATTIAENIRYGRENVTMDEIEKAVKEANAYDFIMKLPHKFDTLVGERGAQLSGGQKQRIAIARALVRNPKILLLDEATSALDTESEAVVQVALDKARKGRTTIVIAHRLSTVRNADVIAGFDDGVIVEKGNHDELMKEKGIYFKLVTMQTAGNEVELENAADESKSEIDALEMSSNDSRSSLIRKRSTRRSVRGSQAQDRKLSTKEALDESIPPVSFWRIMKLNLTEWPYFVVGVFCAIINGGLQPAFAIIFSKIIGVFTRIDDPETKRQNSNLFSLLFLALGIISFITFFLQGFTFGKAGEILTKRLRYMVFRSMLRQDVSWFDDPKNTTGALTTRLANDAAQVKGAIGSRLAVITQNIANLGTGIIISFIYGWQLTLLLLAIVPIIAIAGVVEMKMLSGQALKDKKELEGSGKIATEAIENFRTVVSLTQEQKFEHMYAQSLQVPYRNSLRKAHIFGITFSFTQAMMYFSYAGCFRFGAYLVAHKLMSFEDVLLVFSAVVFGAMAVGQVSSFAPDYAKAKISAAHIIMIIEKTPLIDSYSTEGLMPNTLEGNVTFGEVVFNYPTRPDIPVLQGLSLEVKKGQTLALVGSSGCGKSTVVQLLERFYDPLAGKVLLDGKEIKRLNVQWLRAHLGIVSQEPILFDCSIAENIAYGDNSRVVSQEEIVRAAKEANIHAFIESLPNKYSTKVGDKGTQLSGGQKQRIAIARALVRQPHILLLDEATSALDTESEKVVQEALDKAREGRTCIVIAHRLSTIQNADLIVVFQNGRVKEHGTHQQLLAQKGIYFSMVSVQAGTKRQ
T3 sequence (Q9QYN8 whole entry): as the sequence (Q9QYN8 whole entry) above

| Compound | pIC50 (H3 receptor) | efflux ratio at 10 μM [1] | further results |
| --- | --- | --- | --- |
| COC(=O)c1ccn(-c2ccc(OC3CCN(C4CCC4)CC3)cc2)c1 [Compound No. 1, methyl 1-{4-[(1-cyclobutylpiperidin-4-yl)oxy]phenyl}-1H-pyrrole-3-carboxylate] | 7.92 | – | – |
| O=C(O)c1ccn(-c2ccc(OC3CCN(C4CCC4)CC3)cc2)c1 [Compound No. 2, 1-{4-[(1-cyclobutylpiperidin-4-yl)oxy]phenyl}-1H-pyrrole-3-carboxylic acid] | 7.47 | – | – |
| O=C(c1ccn(-c2ccc(OC3CCN(C4CCC4)CC3)cc2)c1)N1CCC1 [Compound No. 3, azetidin-1-yl (1-{4-[(1-cyclobutylpiperidin-4-yl)oxy]phenyl}-1H-pyrrol-3-yl)methanone] | 8.77 | 1.4 | concentration at 1 h [2]: 78.2 ng/g and 5.75 ng/mL; Kp at 1 h ([2]; brain/plasma movement ratio): 4.5; Kp at 1 h [2, 3]: 0.3; pIC50 (histamine H3 receptor): ≥ 7.00 |
| Cc1cc(C(=O)N2CCCC2)c(C)n1-c1ccc(OC2CCN(C3CCC3)CC2)cc1 [Compound No. 15, (1-{4-[(1-cyclobutylpiperidin-4-yl)oxy]phenyl}-2,5-dimethyl-1H-pyrrol-3-yl)(pyrrolidin-1-yl)methanone] | 8.18 | – | – |
| C[C@@H]1CCCN1CCCOc1ccc(-n2ccc(C(=O)N3CCCC3)c2)cc1 [Compound No. 16, [1-(4-{3-[(2R)-2-methylpyrrolidin-1-yl]propoxy}phenyl)-1H-pyrrol-3-yl](pyrrolidin-1-yl)methanone] | 8.82 | 3.1 | – |
| CC(C)N1CCC(Oc2ccc(-n3ccc(C(=O)N4CCCC4)c3)cc2)CC1 [Compound No. 17, (1-{4-[(1-isopropylpiperidin-4-yl)oxy]phenyl}-1H-pyrrol-3-yl)(pyrrolidin-1-yl)methanone] | 8.96 | – | – |
| CNC(=O)c1ccn(-c2ccc(OC3CCN(C(C)C)CC3)cc2)c1 [Compound No. 18, 1-{4-[(1-isopropylpiperidin-4-yl)oxy]phenyl}-N-methyl-1H-pyrrole-3-carboxamide] | 7.42 | – | – |
| CC(C)(C)N1CCC(Oc2ccc(-n3ccc(C(=O)N4CCCC4)c3)cc2)CC1 [Compound No. 19, (1-{4-[(1-tert-butylpiperidin-4-yl)oxy]phenyl}-1H-pyrrol-3-yl)(pyrrolidin-1-yl)methanone] | 8.77 | – | – |
| CNC(=O)c1ccn(-c2ccc(OC3CCN(C(C)(C)C)CC3)cc2)c1 [Compound No. 20, 1-{4-[(1-tert-butylpiperidin-4-yl)oxy]phenyl}-N-methyl-1H-pyrrole-3-carboxamide] | 7.68 | – | – |
| CN(C)C(=O)c1ccn(-c2ccc(OC3CCN(C4CCC4)CC3)cc2)c1 [compound 6] | 8.49 | 1.2 | – |
| CNC(=O)c1ccn(-c2ccc(OC3CCN(C4CCC4)CC3)cc2)c1 [compound 7, 1-{4-[(1-cyclobutylpiperidin-4-yl)oxy]phenyl}-N-methyl-1H-pyrrole-3-carboxamide] | 8.23 | 1 | concentration at 1 h [2]: 408 ng/g and 50.5 ng/mL; Kp at 1 h ([2]; brain/plasma movement ratio): 2.2; Kp at 1 h [2, 3]: 0.3; pIC50 (histamine H3 receptor): ≥ 7.00 |
| NC(=O)c1ccn(-c2ccc(OC3CCN(C4CCC4)CC3)cc2)c1 [compound 8, 1-{4-[(1-cyclobutylpiperidin-4-yl)oxy]phenyl}-1H-pyrrole-3-carboxamide] | 8.02 | 1.6 | – |
| O=C(c1ccn(-c2ccc(OC3CCN(C4CCC4)CC3)cc2)c1)N1CCOCC1 [compound 9, (1-{4-[(1-cyclobutylpiperidin-4-yl)oxy]phenyl}-1H-pyrrol-3-yl)(morpholin-4-yl)methanone] | 8.60 | 1.6 | – |
| C[C@@H]1CN(C(=O)c2ccn(-c3ccc(OC4CCN(C5CCC5)CC4)cc3)c2)C[C@H](C)O1 [compound 10] | 8.17 | – | – |
| O=C(c1ccn(-c2ccc(OC3CCN(C4CCC4)CC3)cc2)c1)N1CC2(COC2)C1 [compound 11, (1-{4-[(1-cyclobutylpiperidin-4-yl)oxy]phenyl}-1H-pyrrol-3-yl)(2-oxa-6-azaspiro[3.3]hepta-6-yl)methanone] | 9.00 | – | – |
| CC(C)(C)NC(=O)c1ccn(-c2ccc(OC3CCN(C4CCC4)CC3)cc2)c1 [compound 12, N-tert-butyl-1-{4-[(1-cyclobutylpiperidin-4-yl)oxy]phenyl}-1H-pyrrole-3-carboxamide] | 8.28 | – | – |
| O=C(NC1CCC1)c1ccn(-c2ccc(OC3CCN(C4CCC4)CC3)cc2)c1 [compound 13, N-cyclobutyl-1-{4-[(1-cyclobutylpiperidin-4-yl)oxy]phenyl}-1H-pyrrole-3-carboxamide] | 8.43 | – | – |
| (1-{4-[(1-cyclobutylpiperidin-4-yl)oxy]phenyl}-1H-pyrrol-3-yl)(piperidin-1-yl)methanol [compound 5] | 8.49 | – | – |
| (1-{4-[(1-cyclobutylpiperidin-4-yl)oxy]phenyl}-1H-pyrrol-3-yl)(pyrrolidin-1-yl)methanol [compound 4] | 8.96 | – | Efflux ratio ([1]; LLC-GA5-COL300 cells on transwell, 10 μM): 1.3; brain/plasma movement ratio [2, 4]: 2.9; intracerebral concentration [2, 4]: 7.06 ng/g |
